US20080096967A1, “Formulations for Injection of Catecholic Butanes, Including Ndga Compounds, Into Animals” (priority 2005, published 2008)

Assay: Solubility of M4N in water-insoluble lipids (visual inspection)
Format: physicochemical
Method: A 10 mL solution of M4N at a concentration of about 50 mg/mL in sesame oil was made as follows. About 10 mL of sesame oil were added to a glass beaker containing a stir bar. The beaker was placed on a magnetic plate and the stir bar was set to stir at medium speed. About 500 mg of M4N were slowly added to the sesame oil in the center of the beaker with the aid of a spatula to prevent M4N from sticking to the beaker wall. The M4N/sesame oil mixture was stirred for about 2 hr or until all M4N had dissolved or was uniformly suspended without any clump being present. The M4N/sesame oil mixture was heated at about 60° C. for about 30 min. (or longer if a larger volume of solution was desired, for example, 1 hr at 60° C. for 500 mL of the M4N/sesame oil mixture), or longer as need to ensure complete dissolution of M4N. […] If crystals formed, the M4N/sesame oil solution could be heated again at 60° C. for about 1 hr, with stirring, on a hot magnetic plate until all M4N was dissolved back in solution. The final M4N/sesame oil solution was stored at room temperature and was kept protected from light.
A 10 mL solution of M4N at a concentration of about 60 mg/mL in 85% sesame oil and 15% Tween® 20 was made as follows. About 8.5 mL of sesame oil were added to a glass beaker containing a stir bar. The beaker was placed on a magnetic plate and the stir bar was set to stir at medium speed. About 1.5 mL of Tween® 20 was slowly added to the center of the beaker. About 600 mg of M4N were slowly added to the sesame oil/Tween® 20 mixture in the center of the beaker with the aid of a spatula to prevent M4N from sticking to the beaker wall. The M4N/sesame oil/Tween® 20 mixture was stirred for about 2 hr or until all M4N had dissolved or was uniformly suspended without any clumps being present. The M4N/sesame oil/Tween® 20 mixture was heated at about 60° C. for about 30 min. (or longer if a larger volume of solution was desired, for example, 1 hr at 60° C. for 500 mL of the M4N/sesame oil/Tween® 20 mixture), or longer as need to ensure complete dissolution of M4N. […]

COc1ccc(C[C@@H](C)[C@@H](C)Cc2ccc(OC)c(OC)c2)cc1OC [Formulation M4N, meso-1,4-bis(3,4-dimethoxyphenyl)-2,3-dimethylbutane]
stable at room temperature (89% sesame oil and 11% Tween® 20, M4N 29 mg/mL, dissolved at 60° C.): more than 7 days
Stability Time at Room Temperature (Sesame Oil and Tween ® 20: 10% Oil emulsion in 90% saline, M4N 2.9 mg/mL): <3 days
stable at room temperature (sesame oil, M4N 50 mg/mL): less than 1 day
